Data from patent US12064426B2, “Selective inhibitors of ROCK1 and ROCK2 protein kinases and uses thereof” (GENOSCO Inc., priority 2021, dated 2024).

Columns and labels:
[1] = molecular target: T1, Recombinant ROCK1 (amino acids 1-477) (Homo sapiens, UniProt Q13464); assay: ROCK inhibition assay, LANCE Ultra TR-FRET kinase assay (ROCK1); assay type: biochemical; settings: 1 μM ATP, 50 nM ULight-CREBtide substrate
T1 construct: Recombinant ROCK1 (amino acids 1-477); by word order, ROCK1 from Carna Biosciences
Procedure, shortened: (§1)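 LANCE Ultra TR-FRET kinase assay with recombinant ROCK1 (aa 1-477) or ROCK2 (aa 5-554), 50 nM ULight-CREBtide and ATP at 1 μM (ROCK1) or 4 μM (ROCK2) in HEPES pH 7.5 with MgCl2, 1 h at room temperature. EDTA stop with Eu anti-phospho-CREB Ser133 antibody; 665/615 nm read gives IC50.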

[2] = molecular target: T2, Recombinant ROCK2 (amino acids 5-554) (Homo sapiens, UniProt O75116); assay: ROCK inhibition assay, LANCE Ultra TR-FRET kinase assay (ROCK2); assay type: biochemical; settings: 4 μM ATP, 50 nM ULight-CREBtide substrate
T2 construct: ROCK2 (amino acids 5-554); by word order, ROCK2 from SignalChem
Procedure, shortened: as §1

T1 sequence (Q13464 1-477): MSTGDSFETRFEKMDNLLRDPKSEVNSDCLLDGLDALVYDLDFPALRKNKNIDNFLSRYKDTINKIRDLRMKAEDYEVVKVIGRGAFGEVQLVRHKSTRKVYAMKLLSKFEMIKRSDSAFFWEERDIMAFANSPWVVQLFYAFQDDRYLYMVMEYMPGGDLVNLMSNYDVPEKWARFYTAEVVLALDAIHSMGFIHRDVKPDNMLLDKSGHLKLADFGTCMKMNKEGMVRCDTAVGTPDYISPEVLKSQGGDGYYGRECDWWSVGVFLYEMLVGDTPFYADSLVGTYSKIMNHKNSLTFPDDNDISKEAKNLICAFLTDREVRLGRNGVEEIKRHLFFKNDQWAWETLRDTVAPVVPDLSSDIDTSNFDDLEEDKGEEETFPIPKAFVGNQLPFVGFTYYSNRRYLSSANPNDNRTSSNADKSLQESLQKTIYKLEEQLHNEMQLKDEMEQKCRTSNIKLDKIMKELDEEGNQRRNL
T2 sequence (O75116 5-554): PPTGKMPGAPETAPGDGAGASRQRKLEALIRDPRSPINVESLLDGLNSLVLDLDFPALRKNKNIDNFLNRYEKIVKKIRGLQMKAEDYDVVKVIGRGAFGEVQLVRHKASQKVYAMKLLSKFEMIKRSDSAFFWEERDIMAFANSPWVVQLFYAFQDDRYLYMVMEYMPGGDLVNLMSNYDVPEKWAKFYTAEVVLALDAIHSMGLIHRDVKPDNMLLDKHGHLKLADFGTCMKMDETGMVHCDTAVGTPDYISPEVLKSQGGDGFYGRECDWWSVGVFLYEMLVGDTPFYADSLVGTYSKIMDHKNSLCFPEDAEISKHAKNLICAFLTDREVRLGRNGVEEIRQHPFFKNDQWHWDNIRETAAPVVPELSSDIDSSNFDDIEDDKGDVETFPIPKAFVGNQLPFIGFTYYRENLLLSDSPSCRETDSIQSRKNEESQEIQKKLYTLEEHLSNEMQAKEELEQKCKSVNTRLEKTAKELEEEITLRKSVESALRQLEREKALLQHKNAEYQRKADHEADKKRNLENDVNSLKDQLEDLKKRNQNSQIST

SMILES | IC50 [1] [nM] | IC50 [2] [nM]
CNC(=O)c1cc(Cl)cc(Cn2ccc3cc(-c4conc4C)ccc3c2=O)c1 [Compound 319] | 101 to 500 | 10 to 100
[2H]C([2H])([2H])NC(=O)c1cccc(Cn2ccc3cc(-c4ccnn4C)ccc3c2=O)c1 [Compound 321] | 101 to 500 | 10 to 100
CNC(=O)c1cccc(C(C)n2ccc3cc(-c4ccnn4C)ccc3c2=O)c1 (stereo not drawn) [Compound 322] | 101 to 500 | 10 to 100
CNC(=O)c1cc(Cl)cc(Cn2ccc3cc(-c4ccnn4C)ccc3c2=O)c1 [Compound 324] | 101 to 500 | 100 to 500
CNC(=O)c1cccc(Cn2ccc3cc(-c4ccncc4)ccc3c2=O)c1 [Compound 325] | 101 to 500 | 10 to 100
CNC(=O)c1cccc(Cn2ccc3cc(-c4cnnn4C)ccc3c2=O)c1 [Compound 327] | > 501 | > 500
CNC(=O)c1cccc(Cn2ccc3cc(N4CCOCC4)ccc3c2=O)c1 [Compound 328, N-methyl-3-((6-morpholino-1-oxoisoquinolin-2(1H)-yl)methyl)benzamide] | 101 to 500 | 10 to 100
CNC(=O)c1cc(F)cc(Cn2ccc3cc(N4CCOCC4)ccc3c2=O)c1 [Compound 329] | 101 to 500 | 10 to 100
CNC(=O)c1cccc(Cn2ccc3cc(N4CC5CC(C4)O5)ccc3c2=O)c1 [Compound 330] | > 501 | > 500
CNC(=O)c1cccc(Cn2ccc3cc(N4CCO[C@@H](C)C4)ccc3c2=O)c1 [Compound 331] | > 501 | 100 to 500
CC(=O)Nc1cccc(Cn2ccc3cc(-c4ccoc4C)ccc3c2=O)c1 [Compound 332, N-(3-((6-(2-methylfuran-3-yl)-1-oxoisoquinolin-2(1H)-yl)methyl)phenyl)acetamide] | > 501 | 100 to 500
CC(=O)Nc1cc(F)cc(Cn2ccc3cc(-c4ccoc4C)ccc3c2=O)c1 [Compound 333] | > 501 | 100 to 500
CC(=O)Nc1cccc(Cn2ccc3cc(-c4cnoc4C)ccc3c2=O)c1 [Compound 334] | 101 to 500 | 10 to 100
CC(=O)Nc1cc(Cn2ccc3cc(-c4cnoc4C)ccc3c2=O)ccc1F [Compound 335] | 101 to 500 | 10 to 100
CC(=O)Nc1cccc(Cn2ccc3cc(-c4c[nH]nc4C)ccc3c2=O)c1 [Compound 336] | 101 to 500 | 10 to 100
CC(=O)Nc1cccc(Cn2ccc3cc(-c4c[nH]nc4C(F)(F)F)ccc3c2=O)c1 [Compound 337] | 101 to 500 | 10 to 100
CC(C)C(=O)Nc1cccc(Cn2ccc3cc(-c4c[nH]nc4C(F)(F)F)ccc3c2=O)c1 [Compound 338] | 11 to 100 | 10 to 100
O=C(Nc1cccc(Cn2ccc3cc(-c4c[nH]nc4C(F)(F)F)ccc3c2=O)c1)C1CCOCC1 [Compound 339] | 101 to 500 | 10 to 100
O=C(CCc1ccccn1)Nc1cccc(Cn2ccc3cc(-c4c[nH]nc4C(F)(F)F)ccc3c2=O)c1 [Compound 340] | 11 to 100 | < 10
CC(=O)Nc1cccc(Cn2ccc3cc(-c4c[nH]nc4C(F)F)ccc3c2=O)c1 [Compound 341] | 101 to 500 | 10 to 100
O=C(Nc1cccc(Cn2ccc3cc(-c4c[nH]nc4C(F)F)ccc3c2=O)c1)c1cccnc1 [Compound 342] | 101 to 500 | 10 to 100
O=C(Nc1cccc(Cn2ccc3cc(-c4c[nH]nc4C(F)F)ccc3c2=O)c1)C1COC1 [Compound 343] | 101 to 500 | 10 to 100
O=C(Nc1cccc(Cn2ccc3cc(-c4c[nH]nc4C(F)F)ccc3c2=O)c1)c1ccccc1 [Compound 344] | 101 to 500 | 10 to 100
CC(=O)Nc1cccc(Cn2ccc3cc(-c4c[nH]nc4Cl)ccc3c2=O)c1 [Compound 345] | 11 to 100 | 10 to 100
